Laboratory results from patent US8853359B2, “Endokinin C/D-derived peptides” (University of Miyazaki, priority 2009, dated 2014).
Ends that are not written are not given here.

Key:
[1] = system: scratching behavior and thermal hyperalgesia induced by SP or EKA/B; conditions: Non-patent document 3, cited from earlier work
[2] = system: substance P-induced scratching behavior; test: substance P-induced scratching behavior after intrathecal pre-administration of test peptide; type: in vivo, rat
Description: In Example 1, 10^−3M (10 nmol/10 μl) EKC/D or D-EKC/D (1), (2) or (3) was administered to intrathecally catheterized rats via catheters. After the predetermined time periods denoted on the horizontal axis in FIG. 1, the numbers of scratching events (scratching behavior) induced by intrathecal administration of 10^−3M (10 nmol/10 μl) substance P (hereafter, referred to as “SP”) were determined. Here, the expression “10^−3M (10 nmol/10 μl) EKC/D or D-EKC/D (1), (2), or (3) was administered” refers to a situation in which 10 μl in total of a solution (that is, 10^−3M solution) containing 10 nmol of EKC/D or D-EKC/D (1), (2), or (3) was all administered. The expression, “ . . . administration of 10^−3M substance P (10 nmol/10 μl)” refers to a situation in which 10 μl in total of a solution (that is, 10^−3M solution) containing 10 nmol of the substance was all administered. The same similarly applies below.
Meanwhile, saline (10 μl) was intrathecally administered to intrathecally catheterized rats via catheters and then, after 30 minutes, 10^−3M SP (10 nmol/10 μl) was intrathecally administered to the rats. The number of the thus induced scratching events was determined to be the number of scratching events in the control group. The control group is denoted with saline-4-SP in FIG. 1.
The vertical axis of the graph in FIG. 1 indicates changes in the numbers of scratching events (represented by relative values) due to administration of 10^−3M EKC/D or D-EKC/D (1), (2), or (3) when the number of scratching events (of untreated rats in a control group) induced by intrathecal administration of 10^−3M substance P was determined to be 100%. Meanwhile, the horizontal axis indicates the intervals between the administration of EKC/D, D-EKC/D (1), (2), or (3) and 10^−3M substance P. […]
The test was conducted with procedures similar to those in Example 1, except for 4 hours of interval between the administration of each test peptide and the administration of substance P. The concentration of each test peptide and that of substance P for administration were determined to be 10^−3M (10 nmol/10 μl), similarly to Example 1. The number of scratching events in the control group was determined with procedures similar to those in Example 1, such that substance P was administered at 30 minutes after administration of saline (10 μl) and then the number was determined.

[3] = system: carrageenan-induced inflammation; test: carrageenan-induced increase in paw size, EKC/D injected 1 hour after carrageenan; type: in vivo, rat
Description: The vertical axis of the graph in FIG. 4 indicates increases (%) in paw size and the horizontal axis indicates the time after administration of saline (100 μl: saline) or EKC/D with “minutes,” thereby showing the time course changes of anti-inflammatory effects of EKC/D administration on carrageenan-induced inflammation. The paw size before carrageenan administration was determined to be 100%. Paw size was increased by about 50% (saline) as measured using a paw size meter at 1 hour after carrageenan injection. This state continued for about 60 minutes (saline). […] When 10^−3M EKC/D (100 nmol/100 μl) was injected, paw size had decreased to about 40% at 10 minutes after, to about 20% at 30 minutes after, and to about 40% at 50 minutes after injection.

[4] = system: carrageenan-induced thermal hyperalgesia; test: carrageenan-induced thermal hyperalgesia (withdrawal latency), EKC/D injected 1 hour after carrageenan; type: in vivo, rat
Text: Intraplantar injection of carrageenan induces thermal hyperalgesia accompanying inflammation. To examine induction of thermal hyperalgesia, noxious thermal stimulation was applied to plantar using infrared rays. It can be said that thermal hyperalgesia takes place when the latency period of the withdrawal response becomes shorter than that for untreated rats. In FIG. 5, the vertical axis of the graph indicates the latency period in seconds and the horizontal axis of the graph indicates the time after injection of saline or EKC/D in minutes. The latency period in untreated rats (control) after noxious thermal stimulation was about 21 seconds. When saline (100 μl) was injected at 1 hour after carrageenan injection, the latency period was about 13 seconds. […] This state was sustained for 60 minutes (saline). […] When 10^−5M (1 nmol/100 μl) and 10^−6M ([…]) EKC/D were injected, the latency period before rats responded to noxious thermal stimulation was about 17 seconds, which was longer than that in the case of treatment with saline (EKC/D10^−5 M and EKC/D 10^−6 M).

[5] = system: carrageenan-induced thermal hyperalgesia; test: withdrawal latency to noxious thermal stimulation after carrageenan, intrathecal pre-administration of peptide; type: in vivo, rat; conditions: 10^-3M (10 nmol/10 μl) peptide intrathecal; 2% carrageenan 4 hours later; FIG. 9B
Description: (§1) In Example 6, 10^−3M (10 nmol/10 μl) D-EKC/D (3), (5), or (7), Spantide I, or saline (10 μl) was administered to intrathecally catheterized rats via catheters. Four hours later, 100 μl of 2% carrageenan (2 mg/100 μl) was subcutaneously administered to rat plantar.
Meanwhile, noxious thermal stimulation was applied to paw plantar using infrared rays at 10-minute intervals after carrageenan administration. The time (latency period) required for withdrawal response to take place was measured. The latency period before untreated rats following noxious thermal stimulation was designated as the control latency period.

[6] = system: carrageenan-induced inflammation; test: carrageenan-induced increase in paw size after intrathecal pre-administration of peptide; type: in vivo, rat
Description: as §1
Paw size was measured with time for 60 minutes after carrageenan administration. The paw size (control) before carrageenan administration was designated as the basal level, and the increases in paw size were then calculated.

[7] = system: formalin-induced pain behavior; test: formalin-induced pain behavior (flinching) after intrathecal pre-administration of peptide; type: in vivo, rat
Description: In Example 5, 10^−3M (10 nmol/10 μl) D-EKC/D (3), (5), or (7), Spantide I, or saline (10 μl) was administered to intrathecally catheterized rats via catheters and then 4 hours later, 50 μl of 2% formalin was administered subcutaneously to hind paws of rats. The number of flinching (pain behavior) was determined for 60 minutes after formalin administration, so that the degree of pain could be evaluated. During the 10-minute period after formalin administration (referred to as phase I), pain behavior was measured once every 2 minutes (1 minute per measurement). During the period from 10 minutes to 60 minutes after formalin administration (referred to as phase II), pain behavior was measured once every 5 minutes (1 minute per measurement), so that the degree of pain could be evaluated. During phase I, behavior (phasic pain) resulting from chemical stimulation accompanying formalin administration was observed. During phase II, tonic pain following the phasic pain was observed.
The horizontal axis indicates time (minutes) after formalin administration and the vertical axis indicates the measured number of pain behavior per minute.

## Ala-Tyr-Gln-Leu-Glu-His-Thr-Phe-Gln-Gly-Leu-Leu-NH2 (AYQLEHTFQGLL-NH2; listed as Homo sapiens) [EKC/D]
[1]; 5 minutes after administration of EKC/D
  SP-induced hyperalgesia: suppressed
[1]; intrathecal administration to a rat
  induction of scratching behavior or thermal hyperalgesia by the peptide itself: does not induce
[1]; pre-administration of the peptide, intrathecal
  scratching behavior and thermal hyperalgesia induced by administration of SP or EKA/B: suppresses
[2]; 10^-3M (10 nmol/10 μl) peptide intrathecal, 10^-3M SP 30 minutes after peptide, FIG. 1
  number of scratching events induced by substance P, relative to control group (saline+SP = 100%): about 60%
[2]; 10^-3M peptide intrathecal, 10^-3M SP
  duration of suppressive effects on substance P-induced scratching behavior: ≤ 1 h
[2]; 10^-3M peptide intrathecal, SP 1 hour after peptide, FIG. 1
  number of scratching events induced by substance P, relative to control group: restored 1 hour later to the same degree as that for the control group
[3]; 10^-3M EKC/D (100 nmol/100 μl)
  increases in paw size accompanying inflammation due to carrageenan, overall: significantly suppressed
[3]; 10^-3M EKC/D (100 nmol/100 μl), 10 minutes after injection, saline about 50%
  increase in paw size: about 40%
[3]; 10^-3M EKC/D (100 nmol/100 μl), 30 minutes after injection
  increase in paw size: about 20%
[3]; 10^-3M EKC/D (100 nmol/100 μl), 50 minutes after injection
  increase in paw size: about 40%
[3]; 10^-4M EKC/D (10 nmol/100 μl)
  anti-inflammatory effects, overall: weak anti-inflammatory effects
[3]; 10^-4M EKC/D (10 nmol/100 μl), 30 minutes after injection
  increase in paw size: 40%
[3]; 10^-4M EKC/D (10 nmol/100 μl), 60 minutes after injection
  paw size: almost at a normal level
[3]; 10^-5M EKC/D (1 nmol/100 μl)
  effect on paw size: No clear effects
[3]; 10^-6M EKC/D (100 pmol/100 μl)
  effect on paw size: No clear effects
[4]; 10^-3M EKC/D (100 nmol/100 μl), untreated about 21 seconds, saline about 13 seconds
  latency period following noxious thermal stimulation: almost the same as that in the case of untreated rats
[4]; 10^-4M EKC/D (10 nmol/100 μl)
  latency period following noxious thermal stimulation: almost the same tendency as that in the case of 10^−3M EKC/D
[4]; 10^-5M EKC/D (1 nmol/100 μl)
  latency period following noxious thermal stimulation: about 17 seconds
[4]; 10^-6M EKC/D (100 μmol/100 μl)
  latency period following noxious thermal stimulation: about 17 seconds
[4]; 10^-7M EKC/D (10 pmol/100 μl)
  latency period following noxious thermal stimulation: almost the same as that in the case of saline

## Glu-His-Thr-Phe-Gln-DTrp-Leu-Leu-NH2 (EHTFQXLL; HELM PEPTIDE1{E.H.T.F.Q.[dW].L.L.[am]}$$$$V2.0; N-terminus assumed; SMILES CC(C)C[C@H](NC(=O)[C@H](CC(C)C)NC(=O)[C@@H](Cc1c[nH]c2ccccc12)NC(=O)[C@H](CCC(N)=O)NC(=O)[C@H](Cc1ccccc1)NC(=O)[C@@H](NC(=O)[C@H](Cc1c[nH]cn1)NC(=O)[C@@H](N)CCC(=O)O)[C@@H](C)O)C(N)=O) [D-EKC/D (5)]
[2]; Example 2, FIG. 2, 10^-3M peptide, SP 4 hours after peptide, control about 380 scratching
  scratching behavior induced by substance P: almost never induced
[2]; Example 2, FIG. 2, 10^-3M peptide, interval 8 hours and then 14 hours
  suppressive effects on scratching as administration interval is prolonged: gradually attenuated
[2]; Example 3, FIG. 3, 10^-3M peptide, SP 4 hours after peptide, control 380 scratching
  scratching behavior induced by substance P / suppressive effects: attenuated
[5]
  withdrawal time (latency period): significant increases
[6]; 10^-3M (10 nmol/10 μl) peptide intrathecal, 2% carrageenan 4 hours later, FIG. 9A
  rate of increase of paw sizes: significant decreases
[6]; 10^-3M intrathecal, carrageenan 4 hours later
  effects on paw size and withdrawal time compared with Spantide I: sustained to a greater extent than the effects of Spantide I
[7]; 10^-3M (10 nmol/10 μl) peptide intrathecal, 2% formalin 4 hours later, 0-10 minutes after formalin
  numbers of pain behavior during phase I: significantly decreased
[7]; 10^-3M (10 nmol/10 μl) peptide intrathecal, 2% formalin 4 hours later, 10-60 minutes after formalin
  numbers of pain behavior during phase II: significantly decreased
[7]; 10^-3M intrathecal, formalin 4 hours later
  suppressing effects on formalin-induced pain behavior compared with Spantide I: sustained longer compared with the effects of Spantide I
